# System: androgen responsive gene, kallikrein 3 (PSA II transcripts) in LNCaP cells
# Assay: Down-regulation of androgen receptor responsive gene expression by ARE (real time PCR)
# Type: cell-based
# Conditions: electroporation, 1, 5 or 20 μM, 10 nM DHT, 4 hours
substance,measurement,value
5′-AGTCTACGAGTGGGGTTCTTTTTTA-3′ (SEQ ID NO: 24) (DNA AGTCTACGAGTGGGGTTCTTTTTTA; chemistry not given here) [scrambled ARE],steady state levels of PSA II transcripts normalized to actin (DHT induction),this was not observed

# From patent publication US20030224992A1, “Transcription factor modulators and uses thereof” (Praecis Pharmaceuticals Inc., priority 2002, published 2003)
